Our source for the IC50 values is patent US7879848B2, “Dipeptidyl Peptidase-IV inhibiting compounds, method of preparing the same, and pharmaceutical compositions containing the same as an active agent” (LG Life Sciences, Ltd., priority 2005, dated 2011).

The target in the assay is T1, Dipeptidyl Peptidase-IV (DPP-IV) (Homo sapiens, UniProt P27487).
T1 construct: made in house
T1 sequence (P27487 whole entry): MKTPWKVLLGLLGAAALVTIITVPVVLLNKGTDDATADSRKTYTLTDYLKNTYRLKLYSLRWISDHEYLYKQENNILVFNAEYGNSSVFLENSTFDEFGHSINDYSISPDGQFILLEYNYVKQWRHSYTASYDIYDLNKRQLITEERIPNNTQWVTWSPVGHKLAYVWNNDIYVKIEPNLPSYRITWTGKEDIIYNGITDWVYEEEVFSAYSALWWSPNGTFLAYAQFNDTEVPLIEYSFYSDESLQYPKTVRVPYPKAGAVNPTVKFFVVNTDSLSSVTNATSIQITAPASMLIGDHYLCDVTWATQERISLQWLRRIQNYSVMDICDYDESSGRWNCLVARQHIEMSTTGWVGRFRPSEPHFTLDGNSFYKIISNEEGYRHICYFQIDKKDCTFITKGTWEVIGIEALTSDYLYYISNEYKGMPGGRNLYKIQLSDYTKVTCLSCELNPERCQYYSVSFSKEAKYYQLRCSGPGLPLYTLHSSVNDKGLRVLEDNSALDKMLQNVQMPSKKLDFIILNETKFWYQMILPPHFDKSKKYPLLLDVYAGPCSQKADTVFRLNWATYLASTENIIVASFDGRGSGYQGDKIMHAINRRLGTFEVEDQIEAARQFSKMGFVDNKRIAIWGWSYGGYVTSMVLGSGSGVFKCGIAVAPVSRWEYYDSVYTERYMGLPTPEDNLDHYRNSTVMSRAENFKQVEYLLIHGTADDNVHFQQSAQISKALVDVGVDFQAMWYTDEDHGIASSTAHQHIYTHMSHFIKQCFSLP
Kind of assay: Measurement of DPP-IV Activity-Inhibiting Ability (fluorescent substrate Ac-Gly-Pro-AFC). It counts as biochemical. As to conditions: 25° C., 50 mmol HEPES (pH 7.4), DP-IV 7.1 nM, enzyme reaction for 1 hour. A digest of the protocol:
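Baculovirus-expressed, nickel-purified enzyme (7.1 nM) was reacted with 100 µM Ac-Gly-Pro-AFC in 50 mmol HEPES pH 7.4 at 25 °C across a range of inhibitor concentrations. Product fluorescence was read at excitation 400 nm and emission 505 nm.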
By IC50 is commonly meant the concentration needed to halve the response being measured. `N[C@@H](CC(=O)N1CCc2c(nc(-c3cccnc3)nc2C(F)(F)F)C1)CN1CC(F)(F)CCC1=O` [Ex. 71, 1-{(2S)-2-amino-4-oxo-4-[2-pyridin-3-yl-4-(trifluoromethyl)-5,8-dihydropyrido[3,4-d]pyrimidin-7(6H)-yl]butyl}-5,5-difluoropiperidin-2-one] came in with an IC50 of 5 nM.
The figure for `CCc1nc2c(c(C(F)(F)F)n1)CCN(C(=O)C[C@H](N)CN1CC(F)(F)CCC1=O)C2` [Ex. 72, 1-{(2S)-2-amino-4-[2-ethyl-4-(trifluoromethyl)-5,8-dihydropyrido[3,4-d]pyrimidin-7(6H)-yl]-4-oxobutyl}-5,5-difluoropiperidin-2-one] is 23 nM; for `CCc1nc2c(c(C(F)(F)F)n1)CCN(C(=O)C[C@H](N)CN1C[C@H](C)OCC1=O)C2` [Ex. 73, (6S)-4-{(2S)-2-amino-4-[2-ethyl-4-(trifluoromethyl)-5,8-dihydropyrido[3,4-d]pyrimidin-7(6H)-yl]-4-oxobutyl}-6-methylmorpholine-3-one] it is 27 nM; for `CC(C)c1nc2c(c(C(F)(F)F)n1)CCN(C(=O)C[C@H](N)CN1CC(F)(F)CCC1=O)C2` [Ex. 74, 1-{(2S)-2-amino-4-[2-isopropyl-4-(trifluoromethyl)-5,8-dihydropyrido[3,4-d]pyrimidin-7(6H)-yl]-4-oxobutyl}-5,5-difluoropiperidin-2-one] it is 26 nM.
As for `CC(C)c1nc2c(c(C(F)(F)F)n1)CCN(C(=O)C[C@H](N)CN1C[C@H](C)CCC1=O)C2` [Ex. 75, 1-{(2S)-2-amino-4-[2-isopropyl-4-(trifluoromethyl)-5,8-dihydropyrido[3,4-d]pyrimidin-7(6H)-yl]-4-oxobutyl}-5-methylpiperidin-2-one], the IC50 was 16 nM. This IC50 is about 1.6-fold lower than that of the compound before.
As to `CC(C)c1nc2c(c(C(F)(F)F)n1)CCN(C(=O)C[C@H](N)CN1C[C@H](C)OCC1=O)C2` [Ex. 76, (6S)-4-{(2S)-2-amino-4-[2-isopropyl-4-(trifluoromethyl)-5,8-dihydropyrido[3,4-d]pyrimidin-7(6H)-yl]-4-oxobutyl}-6-methylmorpholine-3-one], the IC50 amounted to 30 nM. Against the preceding compound, the IC50 is about 1.9-fold higher.
The value for `C[C@@H]1CN(C[C@@H](N)CC(=O)N2CCn3c(nnc3C(F)(F)F)C2)C(=O)CO1` [Ex. 77, (6R)-4-{(2S)-2-amino-4-oxo-4-[3-(trifluoromethyl)-5,6-dihydro[1,2,4]triazolo[4,3-a]pyrazin-7(8H)-yl]butyl}-6-methylmorpholine-3-one] was 94 nM.
Compound `C[C@H]1CN(C[C@@H](N)CC(=O)N2CCn3c(nnc3C(F)(F)F)C2)C(=O)CO1` [Ex. 78, (6S)-4-{(2S)-2-amino-4-oxo-4-[3-(trifluoromethyl)-5,6-dihydro[1,2,4]triazolo[4,3-a]pyrazin-7(8H)-yl]butyl}-6-methylmorpholine-3-one] gave an IC50 of 163 nM. This IC50 lies about 1.7-fold higher than the previous one.
The figure for `C[C@H]1CCC(=O)N(C[C@@H](N)CC(=O)N2CCn3c(nnc3C(F)(F)F)C2)C1` [Ex. 79, (5S)-1-{(2S)-2-amino-4-oxo-4-[3-(trifluoromethyl)-5,6-dihydro[1,2,4]triazolo[4,3-a]pyrazin-7(8H)-yl]butyl}-5-methylpiperidin-2-one] is 385 nM.
`C[C@H]1CCC(=O)N(C[C@@H](N)CC(=O)N2CCc3c(nc(C(F)(F)F)nc3C(F)(F)F)C2)C1` [Ex. 80] showed an IC50 of 8850 nM.
`Cc1nc2c(c(C(F)(F)F)n1)CCN(C(=O)C[C@H](N)CN1C[C@H](C)CCC1=O)C2` [Ex. 81, (5R)-1-{(2S)-2-amino-4-[2-methyl-4-(trifluoromethyl)-5,8-dihydropyrido[3,4-d]pyrimidin-7(6H)-yl]-4-oxobutyl}-5-methylpiperidin-2-one] showed an IC50 of 10 nM.
The value for `C[C@@H]1CCC(=O)N(C[C@@H](N)CC(=O)N2CCc3c(nc(C(F)(F)F)nc3C(F)(F)F)C2)C1` [Ex. 82, (5R)-1-{(2S)-2-amino-4-[2,4-bis(trifluoromethyl)-5,8-dihydropyrido[3,4-d]pyrimidin-7(6H)-yl]-4-oxobutyl}-5-methylpiperidin-2-one] was 16 nM; that for `C[C@H]1CN(C[C@@H](N)CC(=O)N2CCc3c(nc(C(F)(F)F)nc3C(F)(F)F)C2)C(=O)CO1` [Ex. 84] was 38 nM; that for `Cc1nc2c(c(C(F)(F)F)n1)CCN(C(=O)C[C@H](N)CN1CC(F)(F)CCC1=O)C2` [Ex. 85, 1-{(2S)-2-amino-4-[2-methyl-4-(trifluoromethyl)-5,8-dihydropyrido[3,4-d]pyrimidin-7(6H)-yl]-4-oxobutyl}-5,5-difluoropiperidin-2-one] was 16 nM.
Turning to `Cc1nc2c(c(C(F)(F)F)n1)CCN(C(=O)C[C@H](N)CN1C[C@H](C)OCC1=O)C2` [Ex. 86], it took 30 nM to reach half-maximal inhibition (IC50).
The value for `N[C@@H](CC(=O)N1CCc2c(ncnc2C(F)(F)F)C1)CN1CC(F)(F)CCC1=O` [Ex. 87, 1-{(2S)-2-amino-4-oxo-4-[4-(trifluoromethyl)-5,8-dihydropyrido[3,4-d]pyrimidin-7(6H)-yl]butyl}-5,5-difluoropiperidin-2-one] was 29 nM.
For `C[C@H]1CN(C[C@@H](N)CC(=O)N2CCc3c(ncnc3C(F)(F)F)C2)C(=O)CO1` [Ex. 88, (6S)-4-{(2S)-2-amino-4-oxo-4-[4-(trifluoromethyl)-5,8-dihydropyrido[3,4-d]pyrimidin-7(6H)-yl]butyl}-6-methylmorpholine-3-one], it took 48 nM to reach half-maximal inhibition (IC50).
For `N[C@@H](CC(=O)N1CCn2c(nnc2C(F)(F)C(F)(F)F)C1)CN1CC(F)(F)CCC1=O` [Ex. 89, 1-{(2S)-2-amino-4-oxo-4-[3-(pentafluoroethyl)-5,6-dihydro[1,2,4]triazolo[4,3-a]pyrazin-7(8H)-yl]butyl}-5,5-difluoropiperidin-2-one], the IC50 is 214 nM. Against the preceding compound, the IC50 is about 4.5-fold higher.
As for `C[C@H]1CN(C[C@@H](N)CC(=O)N2CCn3c(nnc3C(F)(F)C(F)(F)F)C2)C(=O)CO1` [Ex. 90, (6S)-4-{(2S)-2-amino-4-oxo-4-[3-(pentafluoroethyl)-5,6-dihydro[1,2,4]triazolo[4,3-a]pyrazin-7(8H)-yl]butyl}-6-methylmorpholine-3-one], the IC50 came out at 356 nM.
Take `CC1CN(C[C@@H](N)CC(=O)N2CCc3c(nc(C(F)(F)F)nc3C(F)(F)F)C2)C(=O)CS1` (stereo partly drawn) [Ex. 91, 4-{(2S)-2-amino-4-[2,4-bis(trifluoromethyl)-5,8-dihydropyrido[3,4-d]pyrimidin-7(6H)-yl]-4-oxobutyl}-6-methylthiomorpholin-3-one]: half-maximal inhibition (IC50) required 85 nM.
The figure for `CC(C)(C)c1nc2c(c(C(F)(F)F)n1)CCN(C(=O)C[C@H](N)CN1CC(F)(F)CCC1=O)C2` [Ex. 92, 1-{(2S)-2-amino-4-[2-t-butyl-4-(trifluoromethyl)-5,8-dihydropyrido[3,4-d]pyrimidin-7(6H)-yl]-4-oxobutyl}-5,5-difluoropiperidin-2-one] is 48 nM; for `C[C@H]1CN(C[C@@H](N)CC(=O)N2CCc3c(nc(C(C)(C)C)nc3C(F)(F)F)C2)C(=O)CO1` [Ex. 93] it is 55 nM.
Consider `CC1CN(C[C@@H](N)CC(=O)N2CCn3c(nnc3C(F)(F)F)C2)C(=O)CS1` (stereo partly drawn) [Ex. 94, 4-{(2S)-2-amino-4-oxo-4-[3-(trifluoromethyl)-5,6-dihydro[1,2,4]triazolo[4,3-a]pyrazin-7(8H)-yl]butyl}-6-methylthiomorpholin-3-one], for which the IC50 turned out to be 238 nM.
The value for `CCc1nc2c(c(C(F)(F)F)n1)CCN(C(=O)C[C@H](N)CN1C[C@H](C)CCC1=O)C2` [Ex. 95, (5R)-1-{(2S)-2-amino-4-[2-ethyl-4-(trifluoromethyl)-5,8-dihydropyrido[3,4-d]pyrimidin-7(6H)-yl]-4-oxobutyl}-5-methylpiperidin-2-one] was 13 nM; that for `C[C@@H]1CCC(=O)N(C[C@@H](N)CC(=O)N2CCc3c(nc(C(F)(F)C(F)(F)F)nc3C(F)(F)F)C2)C1` [Ex. 96, (5R)-1-{(2S)-2-amino-4-oxo-4-[2-(pentafluoroethyl)-4-(trifluoromethyl)-5,8-dihydropyrido[3,4-d]pyrimidin-7(6H)-yl]butyl}-5-methylpiperidin-2-one] was 7 nM.
The figure for `C[C@H]1CN(C[C@@H](N)CC(=O)N2CCc3c(nc(C(F)(F)C(F)(F)F)nc3C(F)(F)F)C2)C(=O)CO1` [Ex. 97, (6S)-4-{(2S)-2-amino-4-oxo-4-[2-(pentafluoroethyl)-4-(trifluoromethyl)-5,8-dihydropyrido[3,4-d]pyrimidin-7(6H)-yl]butyl}-6-methylmorpholine-3-one] is 57 nM; for `N[C@@H](CC(=O)N1CCc2c(nc(C(F)(F)C(F)(F)F)nc2C(F)(F)F)C1)CN1CC(F)(F)CCC1=O` [Ex. 98, 1-{(2S)-2-amino-4-oxo-4-[2-(pentafluoroethyl)-4-(trifluoromethyl)-5,8-dihydropyrido[3,4-d]pyrimidin-7(6H)-yl]butyl}-5,5-difluoropiperidin-2-one] it is 68 nM.
The value for `CCCc1nc2c(c(C(F)(F)F)n1)CCN(C(=O)C[C@H](N)CN1C[C@H](C)CCC1=O)C2` [Ex. 99, (5R)-1-{(2S)-2-amino-4-oxo-4-[2-propyl-4-(trifluoromethyl)-5,8-dihydropyrido[3,4-d]pyrimidin-7(6H)-yl]butyl}-5-methylpiperidin-2-one] was 19 nM; that for `CCCc1nc2c(c(C(F)(F)F)n1)CCN(C(=O)C[C@H](N)CN1CC(F)(F)CCC1=O)C2` [Ex. 100, 1-{(2S)-2-amino-4-oxo-4-[2-propyl-4-(trifluoromethyl)-5,8-dihydropyrido[3,4-d]pyrimidin-7(6H)-yl]butyl}-5,5-difluoropiperidin-2-one] was 18 nM; that for `C[C@@H]1CCC(=O)N(C[C@@H](N)CC(=O)N2CCc3c(nc(CF)nc3C(F)(F)F)C2)C1` [Ex. 101, (5R)-1-{(2S)-2-amino-4-[2-(fluoromethyl)-4-(trifluoromethyl)-5,8-dihydropyrido[3,4-d]pyrimidin-7(6H)-yl]-4-oxobutyl}-5-methylpiperidin-2-one] was 21 nM.
